# Measured values from PubChem BioAssay (NCI).
#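 Growth conditions: 96-well plates. Treatment: test compound, 48 hours, 5 concentrations. Analysis: linear interpolation between bracketing concentrations; unreached endpoints set to highest concentration. GI50 = concentration required for 50% inhibition of growth. The concentration for full growth arrest is given as TGI.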
# Assays:
# Assay in all cases: NCI tumour cell line growth inhibition, 48 h
# HOP-18 NSCLC = tested on: HOP-18 NSCLC
# KM20L2 colon = tested on: KM20L2 colon
# SNB-78 CNS = tested on: SNB-78 CNS
# RXF-631 renal = tested on: RXF-631 renal
# XF 498 CNS = tested on: XF 498 CNS
# P388/ADR leukemia = tested on: P388/ADR leukemia
# SN12K1 renal = tested on: SN12K1 renal
# P388 leukemia = tested on: P388 leukemia
SMILES,TGI (HOP-18 NSCLC) [µM],TGI (KM20L2 colon) [µM],TGI (SNB-78 CNS) [µM],TGI (RXF-631 renal) [µM],TGI (XF 498 CNS) [µM],GI50 (HOP-18 NSCLC) [pM],TGI (P388/ADR leukemia) [µM],TGI (SN12K1 renal) [µM],GI50 (KM20L2 colon) [µM],TGI (P388 leukemia) [µM]
N#CN/C(N)=N/C/N=C(\N)NC#N,> 100,> 100,> 100,> 100,–,–,–,–,–,–
Brc1ccc(C[P+]2(c3ccccc3)CCCCC2)cc1,> 100,> 100,84.2,–,–,–,–,–,–,–
NC(=S)/N=C(/c1nc2ccc(Cl)cc2[nH]c1=O)C(O)c1ccccc1Cl (stereo not given),> 100,> 100,–,–,> 100,–,–,–,–,–
[N-]=[N+]=NC(c1cn(C2CC(O)C(CO)O2)c(=O)[nH]c1=O)C(Br)Br (stereo not given),> 100,> 100,> 100,–,–,–,–,–,–,–
CN(C(=O)C12C3C4C5C3C1(C(=O)C13C6C7C8C6C1C8C73)C5C42)C(C)(C)C (stereo not given),> 50,> 50,> 50,–,> 50,–,–,–,–,–
O=C(c1nc2ccc([N+](=O)[O-])cc2[nH]c1=O)C(O)c1ccc2c(c1)OCO2 (stereo not given),> 100,> 100,–,–,–,–,–,–,–,–
CN(Cc1cnc2nc(N)nc(N)c2n1)c1ccc(C(=O)N[C@@H](CCC(=O)O)C(=O)O)cc1,–,> 250,213,–,184,0.714,29.4,191,0.0025,13.8
O=c1cc(CO)oc2c3c(cc(O)c12)OCC(COC1OC(CO)C(O)C(O)C1O)=CC3 (stereo not given),> 100,> 100,> 100,–,–,–,–,–,–,–
COc1ccc(C(=O)O[C@H]2[C@@H]3C=CO[C@@H](OC4OC(CO)C(O)C(O)C4O)[C@@H]3[C@@]3(CO)O[C@@H]23)cc1O (stereo not given in full),–,> 100,> 100,> 100,> 100,–,–,–,–,–
CCN(CC)CCCNc1ccc2nc(C)n3c4ccc(O)cc4c(=O)c1c23,25.7,17.1,19.6,17.4,23.3,–,–,–,–,–
Clc1ccc(C(c2ccccc2Cl)C(Cl)Cl)cc1 (stereo not given),21.6,33.8,41.5,35.8,37.2,–,44.2,36.9,–,38.2
COc1ccc(C(c2c(O)c3ccccc3n(-c3ccccc3)c2=O)c2c(O)c3ccccc3n(-c3ccccc3)c2=O)cc1,> 100,> 100,> 100,–,> 100,–,–,–,–,–
COc1ccc(N=NC(C(=O)c2ccccc2)C(=O)c2ccccc2)cc1,–,64,–,> 100,71.9,–,–,–,–,–
CCOc1ccc2[nH]c3c(C)c4ccncc4c(C)c3c2c1,–,2.56,3.12,2.61,2.16,–,–,–,–,–
NC1=C(NC(=O)Cc2ccccc2F)C(=O)c2ccccc2C1=O,> 100,> 100,–,–,–,–,–,–,–,–
